Drawing on patent US20050233967A1, “Compositions, systems, and methods for focusing a cell-mediated immune response” (priority 2002, published 2005), this text covers IFN-γ level for two compounds.

The test system of assay [1] is IFN-γ. Kind of assay: IFN-γ Levels in Chlamydia Patients (ProCon IFN-γ assay, 492 nm). Type of assay: in vivo, human. As to conditions: urogenital chlamydiosis patients, First Group: claritomycin, doxycyclin and ofloxacin in succession; after treatment. As for the experimental part: Among other cytokine levels, levels of IFN-γ were determined for three groups, each including fifteen (15) individuals, and compared with IFN-γ levels of the aforementioned group of fifteen (15) “normal” blood donors. The individuals of a first group were treated with 500 mg of claritomycin twice daily for ten (10) to fourteen (14) days, 100 mg of doxycyclin once daily for ten (10) days, and 200 mg of ofloxacin twice daily for ten (10) days, with the drugs having been administered in succession. The individuals of the second group received 500 mg of claritomycin twice daily for ten (10) to fourteen (14) days and one capsule of TRANSFER FACTOR PLUS three times each day for ten (10) days, with treatment with the claritomycin and TRANSFER FACTOR PLUS beginning on the same day. In the third group, each individual was treated with 500 mg of claritomycin twice daily for ten (10) to fourteen (14) days and one capsule of TRANSFER FACTOR thrice daily for ten (10) days, with administration of the claritomycin and TRANSFER FACTOR PLUS having begun on the same day. […] The following TABLE 5 lists the collective measures of IFN-γ in all three groups, as determined by use of the ProCon IFN-γ assay available from Protein Contour and photometrically measured at a wavelength of 492 nm. […]

Assay [2] concerns IFN-γ. The experiment in a line: IFN-γ Levels in Chronic Opisthorchiasis Patients (ProCon IFN-γ assay, 492 nm). Type of assay: in vivo, human. As to conditions: Second Group: praziquantel only, two weeks after treatment. The source says:
Forty-five (45) individuals with chronic opisthorchiasis were split into two groups: a first group including twenty-five (25) individuals and a second group including twenty (20) individuals. The individuals of both groups received conventional praziquantel treatment, an anti-parasitic, or antihelminthic, drug which is used in the treatment of opisthorchiasis and is available under the trade name BILTHRICIDE™ from Bayer AG of Leverkusen, Germany. In addition to praziquantel, two capsules of TRANSFER FACTOR PLUS were administered to the individuals of the first group following praziquantel treatment, three times daily for seven days. The individuals of the second group were only treated with praziquantel.
Levels of various cytokines, including γ-interferon (IFN-γ), antibodies, and immune complexes were determined, by known processes, for each the individuals prior to therapy and two weeks following TRANSFER FACTOR PLUS therapy in the individuals of the […] was discontinued. The following TABLE 4 lists the collective measures of IFN-γ in both groups, as determined by use of the ProCon IFN-γ assay available from Protein Contour of St. Petersburg, Russia, and photometrically measured at a wavelength of 492 nm. TABLE 4 also includes a collective measure of the IFN-γ levels of fifteen (15) “normal” blood donors.

Turning to `CC[C@H]1OC(=O)[C@H](C)[C@@H](O[C@H]2C[C@@](C)(OC)[C@@H](O)[C@H](C)O2)[C@H](C)[C@@H](O[C@@H]2O[C@H](C)C[C@H](N(C)C)[C@H]2O)[C@](C)(OC)C[C@@H](C)C(=O)[C@H](C)[C@@H](O)[C@]1(C)O` [claritomycin], the IFN-γ level in assay [1] amounted to 31.4 ± 6.1. As for `O=C(C1CCCCC1)N1CC(=O)N2CCc3ccccc3C2C1` (centres unmarked) [praziquantel], in assay [2], the IFN-γ level was 51.4 ± 6.3.
